In the OPERA property sets (Mansouri et al. 2018):
Values after ≈ are worked out from the molar mass of the structure shown.

Settings: not given

Row | SMILES | logP
1 | C[C@H](CSC(=O)c1ccccc1)C(=O)N1C[C@@H](Sc2ccccc2)C[C@H]1C(=O)O | 4.4
2 | CN1C(=O)CC(=O)N(c2ccccc2)c2cc(Cl)ccc21 | 2.12
3 | CC(O)CNc1ncc(-c2ccncc2)cc1C#N (centres undefined) | 0.79
4 | COC1=C(OC)C(=O)C(C)=CC1=O | 0.8
5 | C[C@H](CCC(=O)O)[C@H]1CC[C@H]2[C@@H]3[C@H](O)C[C@@H]4C[C@H](O)CC[C@]4(C)[C@H]3C[C@H](O)[C@]12C | 2.02
6 | CC(=O)N[C@@H](Cc1ccc(O)cc1)C(=O)O | 1.32
7 | CCN(CC)CCN=c1cc2n(-c3ccc(Cl)cc3)c3ccccc3nc-2cc1Nc1ccc(Cl)cc1 | 7.97
8 | COc1cc2nc(N3CCN(C(=O)C4COc5ccccc5O4)CC3)nc(N)c2cc1OC (centres undefined) | 3.3
9 | O=[N+]([O-])c1c(Cl)cc(Cl)cc1Cl | 3.69
10 | CCCCOCCOCCOCCCC | 1.92
11 | Cc1cn([C@H]2C[C@H](N=[N+]=[N-])[C@@H](CO)O2)c(=O)[nH]c1=S | 1.07
12 | Cc1ccc(S(=O)(=O)CC(=O)c2ccccc2)cc1 | 2.45
13 | OCc1ccccc1F | 1.31
14 | CCCCC(O)CCC (centres undefined) | 2.68
15 | ClC1=C(Cl)C2(Cl)C3CC=CC3C1(Cl)C2(Cl)Cl (centres undefined) | 5.57
16 | COc1cc(Cl)c(Cl)c(Cl)c1O | 3.72
17 | CCCCC(=O)CCCC | 2.88
18 | O=Cc1ccc(F)cc1 | 1.54
19 | CC(=O)OCN1Cc2ccccc2C1=O | 0.99
20 | CCCCC(=O)OCN1C(=O)NC(c2ccccc2)(c2ccccc2)C1=O | 3.9
21 | CC(C)(C)C1CCC(O)CC1 (centres undefined) | 3.23

Row | SMILES | logP
22 | COc1cc([N+](=O)[O-])c2ncccc2c1 | 1.87
23 | O=C(OCc1ccccc1)c1ccc(O)cc1 | 3.56
24 | CCCCCCCC(=O)[O-].[Na+] | -1.38
25 | CNCCC=C1c2ccccc2CCc2ccccc21 | 4.51
26 | CCCCN(C)C(=O)Nc1ccc(Cl)c(Cl)c1 | 4.1
27 | Clc1cccc2ccccc12 | 4
28 | CCn1cc(C(=O)O)c(=O)c2cc(F)c(N3CCNCC3)c(F)c21 | -0.57
29 | O=C(OCn1ncc2c(=O)[nH]cnc21)c1ccccc1 | 1.5
30 | Cc1ccc(C=[N+]([O-])c2ccccc2)cc1 | 2.41
31 | COC(=O)c1ccccc1S(N)(=O)=O | 0.01
32 | O=C(OC1C2C=CC1C=C2)c1ccccc1 (centres undefined) | 3.03
33 | O=C1CC[C@@]2(O)[C@H]3Cc4ccc(O)c5c4[C@@]2(CCN3CC2CC2)[C@H]1O5 | 1.92
34 | COC(=O)c1ccc(Cl)cc1 | 2.87
35 | COC(=O)n1c(-c2cscn2)nc2ccccc21 | 2.05
36 | C=CCCCCCCCC | 5.7
37 | N=C(N)NN=Cc1cccc([N+](=O)[O-])c1 | 0.01
38 | CCOC(=O)c1ccccc1S(=O)(=O)NC(=O)Nc1nc(Cl)cc(OC)n1 | 2.5
39 | ClC(Cl)(Cl)c1nc(NCc2ccccc2)nc(C(Cl)(Cl)Cl)n1 | 4.93
40 | Cc1cccc2c1ccc1ccccc12 | 5.08
41 | C[C@H](CS)C(=O)N1CCC[C@H]1C(=O)O | 0.34
42 | [N-]=[N+]=CC(=O)OC[C@H](N)C(=O)O | -2

Same assay, conditions: 20 °C

Row | SMILES | solubility [mM]
43 | CCC(Cl)Cl | 23.9 (≈ 2700 µg/mL)
44 | CN(C)c1ccc(C(=O)c2ccc(N(C)C)cc2)cc1 | 1.49 (≈ 400 µg/mL)
45 | CC(C)(C)C1CCC(O)CC1 (centres undefined) | 0.64 (≈ 100 µg/mL)

Same assay, conditions: 24 °C

Row | SMILES | solubility [mM]
46 | COc1cc(C=O)cc(Cl)c1O | 1.33 (≈ 249 µg/mL)

Same assay, conditions: 25 °C

Row | SMILES | solubility [mM]
47 | CC(O)COc1ccccc1 (centres undefined) | 72.3 (≈ 11000 µg/mL)
48 | ClC1=C(Cl)C2(Cl)C3CCC4C(CCC3C1(Cl)C2(Cl)Cl)C1(Cl)C(Cl)=C(Cl)C4(Cl)C1(Cl)Cl (centres undefined) | 6.73e-11 (≈ 4.4e-08 µg/mL)
49 | Nc1ccc(Cc2ccc(N)cc2)cc1 | 5.04 (≈ 1000 µg/mL)
50 | CCCCCC1CCCC1 | 0.00082 (≈ 0.115 µg/mL)
51 | CCCN(CCC)c1c([N+](=O)[O-])cc(C(C)C)cc1[N+](=O)[O-] | 0.000339 (≈ 0.105 µg/mL)
52 | O=[N+]([O-])c1ccc(F)cc1O | 8.91 (≈ 1400 µg/mL)
53 | CNC(=O)O/N=C/C(C)(C)S(C)=O (centres undefined) | 136 (≈ 28000 µg/mL)
54 | CCCCCCCCCCCCN | 0.421 (≈ 78 µg/mL)
55 | C=CCCCCCCCC | 0.00406 (≈ 0.57 µg/mL)
56 | c1ccc(OCC2CO2)cc1 (centres undefined) | 16 (≈ 2400 µg/mL)

Same assay, conditions: 25.0 °C

Row | SMILES | log10 OH rate constant (cm³/molecule/s)
57 | CCNC(=O)OCC | -10.8
58 | c1cc2ccc3cccc4ccc(c1)c2c34 | -10.3

Same assay, conditions: 30 °C

Row | SMILES | solubility [mM]
59 | CCOC(=O)CCl | 158 (≈ 19400 µg/mL)
